Assay results reported in patent US20080306098A1, “Pharmacokinetics of protease inhibitors and other drugs” (priority 2006, published 2008).
Like-named read-outs stand apart in the source and are kept apart here.

Experiments:
[1] = unmodified drug; cited from earlier work
[2] = non-transplant patients; cited from earlier work
[3] = in vivo; cited from earlier work
CYP3a4 = molecular target: T1, CYP3a4 (Homo sapiens, UniProt P08684); assay: Fluorescence-based CYP3a4 assay (Invitrogen VIVID probes), with or without recombinant human FKBP; assay type: in vitro ADME
T1 construct: purchased Invitrogen (Carlsbad, Calif.)
T1 sequence (P08684 whole entry): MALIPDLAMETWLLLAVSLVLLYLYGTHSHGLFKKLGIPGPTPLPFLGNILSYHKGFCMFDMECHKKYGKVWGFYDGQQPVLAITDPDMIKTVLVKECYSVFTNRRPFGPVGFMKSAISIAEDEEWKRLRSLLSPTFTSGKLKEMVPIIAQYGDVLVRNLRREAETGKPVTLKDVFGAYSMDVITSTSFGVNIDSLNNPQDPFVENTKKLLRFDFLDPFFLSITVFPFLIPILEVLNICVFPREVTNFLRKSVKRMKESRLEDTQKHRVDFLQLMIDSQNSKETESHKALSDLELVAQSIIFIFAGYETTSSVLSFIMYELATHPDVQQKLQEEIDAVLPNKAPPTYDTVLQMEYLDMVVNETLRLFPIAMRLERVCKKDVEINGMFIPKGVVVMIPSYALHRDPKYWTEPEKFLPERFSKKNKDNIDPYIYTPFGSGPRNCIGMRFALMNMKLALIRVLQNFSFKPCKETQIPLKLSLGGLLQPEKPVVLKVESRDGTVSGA
Description: An amyloid ligand, curcumin, is known to be a good substrate for CYP3a4 (a common P450 enzyme). We investigated whether conjugates between curcumin and FK506 would also be substrates for the enzyme. To test this possibility, we utilized a well-known fluorescence-based CYP3a4 assay. This assay, marketed by Invitrogen (Carlsbad, Calif.), under the name VIVID probes, relies on cytochrome-mediated production of a fluorescent marker from a model substrate. When a compound, such as curcumin, binds to the P450, it displaces the substrate and reduces the rate of production of the fluorescent product. […] However, when we supplied a source of human FKBP (in this case, recombinant bacterially-expressed protein), we observed very different results as shown in FIG. 3. […] It is believed that FKBP protects the curcumin conjugates from degradation by sterically hindering CYP3a4 binding. In the presence of cellular FKBP sources, this effect would be predicted to be increased because the compartmentalization of the conjugate further reduces availability to P450 enzymes.

## CN(Cc1cnc2nc(N)nc(N)c2n1)c1ccc(C(=O)N[C@@H](CCC(=O)O)C(=O)O)cc1 [methotrexate]
[1]
  half-life: 6 h

## C=CC[C@@H]1/C=C(\C)C[C@H](C)C[C@H](OC)[C@H]2O[C@@](O)(C(=O)C(=O)N3CCCC[C@H]3C(=O)O[C@H](/C(C)=C/[C@@H]3CC[C@@H](O)[C@H](OC)C3)[C@H](C)[C@@H](O)CC1=O)[C@H](C)C[C@@H]2OC [FK506, FK506 (tacrolimus)]
[2]
  half-life: 21 h
[3]
  distribution into protected cellular compartments (in the blood): 72-98%

## COc1cc(/C=C/C(=O)CC(=O)/C=C/c2ccc(O)c(OC)c2)ccc1O [curcumin]
CYP3a4; in the presence of recombinant human FKBP
  protection from degradation by CYP3a4: unable to protect
CYP3a4; without FKBP
  substrate for CYP3a4: good substrates
